# Measured values taken from ChEMBL document CHEMBL1121473, “Conformationally defined aromatic amino acids. Synthesis and stereochemistry of 2-endo- and 2-exo-amino-1,2,3,4-tetrahydro-1,4-ethanonaphthalene-2-carboxylic acids (2-endo- and 2-exo-aminobenzobicycle[2.2.2]octene-2-carboxylic acids)” (J Med Chem, 1980).
# Columns and labels:
# Enterococcus faecalis [1] = test: Ability to inhibit the decarboxylation of L-phenyl-alanine using a crude enzyme preparation of phenylalanine decarboxylase (PAD) from Streptococcus faecalis, at 1.76 mM concentration
# Enterococcus faecalis [2] = test: Ability to inhibit the decarboxylation of L-phenyl-alanine using a crude enzyme preparation of phenylalanine decarboxylase (PAD) from Streptococcus faecalis at 1.76 mM concentration
# Enterococcus faecalis [3] = test: ability to inhibit the decarboxylation of L-phenyl-alanine using a crude enzyme preparation of phenylalanine decarboxylase (PAD) from Streptococcus faecalis, at 1 mM concentration
# Enterococcus faecalis [4] = test: ability to inhibit the decarboxylation of L-phenyl-alanine using a crude enzyme preparation of phenylalanine decarboxylase (PAD) from Streptococcus faecalis, at 1.76 mM concentration
smiles,measurement,setting,value
NC1(C(=O)O)CC2CC[C@@H]1c1ccccc12 (stereo in doubt; 1b),inhibition,Enterococcus faecalis [1],8%
NC1(C(=O)O)CC2CC[C@@H]1c1ccccc12 (stereo in doubt; 1a),inhibition,Enterococcus faecalis [2],7%
N[C@@H](Cc1ccc(Cl)cc1)C(=O)O (racemic),inhibition,Enterococcus faecalis [3],24%
C[C@](N)(Cc1ccc(O)c(O)c1)C(=O)O (racemic),inhibition,Enterococcus faecalis [4],8%
